Literature values, collected in US20030134851A1, “Methods and compositions for providing glutamine” (priority 2001, published 2003).

Conditions: rodents; cited from earlier work

Question: Which Neurotoxicity does the source give for `O=C1CC[C@@H](C(=O)O)N1` [pyroglutamic acid] here?
Answer: is a neurotoxin in rodents
